The values that follow come from patent publication US12648927B2, “Compositions and methods of enhancing immunotherapies” (Cha Therapeutics, Inc., priority 2018, dated 2026).

One experiment relates to HLA-DRB5 (MHC II). Briefly: IFN stimulated gene expression by qRT-PCR (HLA-DRB5), TNBC human xenograft tumors. Format: in vivo. To be noted: single components vs combination. The procedure: It was tested in 6 treated and 5 untreated tumors. *P<0.05, **P<0.01, ***P<0.005, ****P<0.001. Data represented as mean±SEM.
In general terms: In qPCR the cycle at which signal appears reflects the starting amount.

In another experiment the test system is PDL-1. In words: PDL-1 gene expression by qRT-PCR, human MDA-MB-231 xenograft tumors. Format: in vivo. The following applies: human tumors in immune compromised mice, 4-5 mice each group. The text has this:
Data represented as mean±SEM.

Regarding `O=C(O[C@@H]1Cc2c(O)cc(O)cc2O[C@@H]1c1cc(O)c(O)c(O)c1)c1cc(O)c(O)c(O)c1` [EGCG, epigallocatechin gallate], the “HLA-DRB5 (MHC II) gene expression” value in the experiment with HLA-DRB5 (MHC II) is recorded as “no significant effect”.

Regarding `Nc1ncn([C@H]2C[C@H](O)[C@@H](CO)O2)c(=O)n1` [DAC, decitabine], in the experiment on HLA-DRB5 (MHC II), the “HLA-DRB5 (MHC II) gene expression” value is on record as “no significant effect”. The “relative gene expression of PDL-1, increase” value in the experiment on PDL-1 came to 2 fold.
